The values that follow come from patent US8389552B2, “(S)-6-(2-(4-(cyclobutylsulfonyl)-1H-imidazol-1-yl)-3-cyclopentylpropanamido)nicotinic acid useful as a glucokinase activator” (Pfizer Inc., priority 2009, dated 2013).

For orientation: EC50 means the midpoint of the concentration-response curve.

The target of this assay is T1, Full-length glucokinase (beta cell isoform) (Homo sapiens, UniProt P35557).
T1 construct: Full-length glucokinase (beta cell isoform) was His-tagged at N-terminus; His tag (N); made in house; host or cells: E. coli BL21(DE3), pBCGK vector
T1 sequence (P35557 1-465): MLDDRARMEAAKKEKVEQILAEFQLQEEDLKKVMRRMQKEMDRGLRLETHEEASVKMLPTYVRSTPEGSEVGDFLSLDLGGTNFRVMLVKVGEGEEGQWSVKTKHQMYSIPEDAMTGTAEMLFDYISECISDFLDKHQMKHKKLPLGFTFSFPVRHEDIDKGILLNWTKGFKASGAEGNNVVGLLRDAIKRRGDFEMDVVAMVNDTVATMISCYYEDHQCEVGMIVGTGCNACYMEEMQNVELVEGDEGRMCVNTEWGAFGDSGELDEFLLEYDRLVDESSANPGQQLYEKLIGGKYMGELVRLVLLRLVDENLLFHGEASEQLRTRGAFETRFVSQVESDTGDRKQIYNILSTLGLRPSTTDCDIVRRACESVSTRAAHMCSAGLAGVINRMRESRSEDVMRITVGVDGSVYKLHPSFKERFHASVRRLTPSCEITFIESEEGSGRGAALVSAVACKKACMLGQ
Nature of the assay: Glucokinase activation assay (PK/LDH-coupled, NADH depletion at 340 nm). The class given is biochemical. The following applies: for Emax: % max activation = (Va/Vo−1)×100 from fit, pH 7.1, read-out: Maximum Activation (%). The procedure:
Full-length glucokinase (beta cell isoform) was His-tagged at N-terminus and purified by a Ni column followed by size exclusion chromatography. A 320 mL column was packed in house using Superdex75 (Amersham Pharmacia, Carlsbad, Calif.) preparation grade resin. Glucose was obtained from Calbiochem (San Diego, Calif.) and other reagents were purchased from Sigma-Aldrich (St. Louis, Mo.).
All assays were performed in a Corning 384-well plate using Spectramax PLUS spectrophotometer (Molecular Devices, Sunnyvale, Calif.) at room temperature. The final assay volume was 40 ∥L. The buffer conditions used in this assay were as follows: 50 mM HEPES, 5 mM glucose, 2.5 mM ATP, 3.5 mM MgCl2, 0.7 mM NADH, 2 mM dithiothreitol, 1 unit/mL pyruvate kinase/lactate dehydrogenase (PK/LDH), 0.2 mM phosphoenolpyruvate, and 25 mM KCl. The buffer pH was 7.1. The test compound in dimethylsulfoxide solution was added to the buffer and mixed by a plate shaker for 7.5 minutes. The final concentration of dimethylsulfoxide introduced into the assay was 0.25%.
Glucokinase was added to the buffer mixture to initiate the reaction in the presence and absence of compound. The reaction was monitored by absorbance at 340 nm due to the depletion of NADH. The initial reaction velocity was measured by the slope of a linear time course of 0-300 seconds. The percentage of maximum activation was calculated by the following equation: % Maximum Activation=(Va/Vo−1)×100; wherein each of Va and Vo is defined as the initial reaction velocity in the presence and absence of the tested compound, respectively.
The glucokinase activities were measured as a function of compound concentrations.

Setting [1] is: 5 mM glucose, 2.5 mM ATP, pH 7.1, room temperature, single value or range where N>1, read-out: EC50.
[2] abbreviates: 5 mM glucose, single value or range where N>1.

Molecules are shown by their SMILES. Read-outs that look alike come from different tables or passages of the source.

Turning to `Cn1ccc(NC(=O)[C@H](CC2CCCC2)n2cnc(S(C)(=O)=O)n2)n1` [Example 26, (S)-3-cyclopentyl-N-(1-methyl-1H-pyrazol-3-yl)-2-(3-(methylsulfonyl)-1H-1,2,4-triazol-1-yl)propanamide], the 50% effective concentration (EC50) under setting [1] amounted to 33 µM. Under setting [2], the Emax is 89%.
The like results for `Cc1cnc(NC(=O)[C@H](CC2CCCC2)n2cnc(S(C)(=O)=O)n2)cn1` [Example 27, (S)-3-cyclopentyl-N-(5-methylpyrazin-2-yl)-2-(3-(methylsulfonyl)-1H-1,2,4-triazol-1-yl)propanamide] were, in that order, 22 µM and 120%.
On to `Cc1ccc(NC(=O)[C@H](CC2CCCC2)n2cnc(S(=O)(=O)C(C)C)c2)nc1` [Example 28, (S)-3-cyclopentyl-2-(4-(isopropylsulfonyl)-1H-imidazol-1-yl)-N-(5-methylpyridin-2-yl)propanamide], for which the half-maximal effective concentration (EC50) under setting [1] is > 100 µM.
For the compound `CC(C)S(=O)(=O)c1cn([C@@H](CC2CCCC2)C(=O)Nc2ccn(C)n2)cn1` [Example 29, (S)-3-cyclopentyl-2-(4-(isopropylsulfonyl)-1H-imidazol-1-yl)-N-(1-methyl-1H-pyrazol-3-yl)propanamide], under setting [1], the EC50 came out at 17 µM. Also, the Emax under setting [2] was determined as 112%.
`Cc1cnc(NC(=O)[C@H](CC2CCCC2)n2cnc(S(=O)(=O)C(C)C)c2)cn1` [Example 30, (S)-3-cyclopentyl-2-(4-(isopropylsulfonyl)-1H-imidazol-1-yl)-N-(5-methylpyrazin-2-yl)propanamide]: under setting [1], the 50% effective concentration (EC50) turned out to be 10 µM. Under setting [2], the Emax turned out to be 100%.
In the case of `CCS(=O)(=O)c1cn([C@@H](CC2CCCC2)C(=O)Nc2ccn(C)n2)cn1` [Example 31, (S)-3-cyclopentyl-2-(4-(ethylsulfonyl)-1H-imidazol-1-yl)-N-(1-methyl-1H-pyrazol-3-yl)propanamide], the concentration giving a half-maximal response (EC50) under setting [1] worked out at 11 µM. In addition, the Emax under setting [2] was found to be 125%.
For `CCS(=O)(=O)c1cn([C@@H](CC2CCCC2)C(=O)Nc2cnc(C)cn2)cn1` [Example 33, (S)-3-cyclopentyl-2-(4-(ethylsulfonyl)-1H-imidazol-1-yl)-N-(5-methylpyrazin-2-yl)propanamide], the EC50 under setting [1] was found to be 16 µM. The Emax under setting [2] turned out to be 136%.
The like results for `Cc1cnc(NC(=O)[C@H](CC2CCCC2)n2cnc(S(C)(=O)=O)c2)cn1` [Example 34, (S)-3-cyclopentyl-N-(5-methylpyrazin-2-yl)-2-(4-(methylsulfonyl)-1H-imidazol-1-yl)propanamide] were, in that order, 62 µM and 236%.
Take `Cc1ccc(NC(=O)[C@H](CC2CCCC2)n2cnc(S(C)(=O)=O)c2)nc1` [Example 35, (S)-3-cyclopentyl-N-(5-methylpyridin-2-yl)-2-(4-(methylsulfonyl)-1H-imidazol-1-yl)propanamide]: under setting [1], the concentration for a half-maximal effect (EC50) is 0.8 µM. In addition, the Emax under setting [2] came to 100%.
The like results for `Cn1ccc(NC(=O)[C@H](CC2CCCC2)n2cnc(S(C)(=O)=O)c2)n1` [Example 36, (S)-3-cyclopentyl-N-(1-methyl-1H-pyrazol-3-yl)-2-(4-(methylsulfonyl)-1H-imidazol-1-yl)propanamide] were, in that order, 23 µM and 125%.
For the compound `CS(=O)(=O)c1cn([C@@H](CC2CCCC2)C(=O)Nc2ccc(C(=O)O)cn2)cn1` [Example 38, (S)-6-(3-cyclopentyl-2-(4-(methylsulfonyl)-1H-imidazol-1-yl)propanamido)nicotinic acid], the EC50 under setting [1] is 2.3 µM. In addition, the Emax under setting [2] is 160%.
On to `Cn1ccc(NC(=O)[C@H](CC2CCCC2)n2cnc(C(F)(F)F)c2)n1` [Example 43, (S)-3-cyclopentyl-N-(1-methyl-1H-pyrazol-3-yl)-2-(4-(trifluoromethyl)-1H-imidazol-1-yl)propanamide], for which the concentration for a half-maximal effect (EC50) under setting [1] was 2.9 to 3.5 µM. Also, the Emax under setting [2] was in the range of 147 to 166%.
For the compound `Cc1cnc(NC(=O)[C@H](CC2CCCC2)n2cnc(C(F)(F)F)c2)cn1` [Example 45, (S)-3-cyclopentyl-N-(5-methylpyrazin-2-yl)-2-(4-(trifluoromethyl)-1H-imidazol-1-yl)propanamide], under setting [1], the EC50 stood at 2 µM. Moreover, the Emax under setting [2] turned out to be 161%.
Turning to `CCn1ncc(NC(=O)[C@H](CC2CCCC2)n2cnc(C(F)(F)F)c2)n1` [Example 49, (S)-3-cyclopentyl-N-(2-ethyl-2H-[1,2,3]triazol-4-yl)-2-(4-trifluoromethyl-1H-imidazol-1-yl)propanamide], the EC50 under setting [1] was determined as 2.2 µM. Moreover, the Emax under setting [2] turned out to be 168%.
As to `O=C(Nc1cnc([C@H](O)CO)cn1)[C@H](CC1CCCC1)n1cnc(C(F)(F)F)c1` [Example 50, (S)-3-cyclopentyl-N-(5-((S)-1,2-dihydroxyethyl)pyrazin-2-yl)-2-(4-(trifluoromethyl)-1H-imidazol-1-yl)propanamide], under setting [1], the concentration giving a half-maximal response (EC50) was 2.6 to 4.2 µM. Also, under setting [2], the Emax fell in the range of 121 to 140%.
The like results for `CS(=O)(=O)c1ccc(NC(=O)[C@H](CC2CCCC2)n2cnc(C(F)(F)F)c2)nc1` [Example 51, (S)-3-cyclopentyl-N-[5-(methylsulfonyl)pyridin-2-yl]-2-[4-(trifluoromethyl)-1H-imidazol-1-yl]propanamide] were, in that order, 6.7 to 8.8 µM and 90 to 113%.
Turning to `NC(=O)c1ccc(NC(=O)[C@H](CC2CCCC2)n2cnc(C(F)(F)F)c2)nc1` [Example 52, 6-[(S)-3-cyclopentyl-2-(4-trifluoromethyl-1H-imidazol-1-yl)-propionylamino]-nicotinamide], under setting [1], the concentration giving a half-maximal response (EC50) turned out to be 0.4 µM. Besides, the Emax under setting [2] amounted to 110%.
Regarding `CC(C)(O)Cn1ccc(NC(=O)[C@H](CC2CCCC2)n2cnc(C(F)(F)F)c2)n1` [Example 56, (S)-3-cyclopentyl-N-(1-(2-hydroxy-2-methylpropyl)-1H-pyrazol-3-yl)-2-(4-(trifluoromethyl)-1H-imidazol-1-yl)propanamide], the concentration for a half-maximal effect (EC50) under setting [1] amounted to 5.2 µM. The Emax under setting [2] was 167%.
Take `CCOP(=O)(Cc1ccc(NC(=O)[C@H](CC2CCCC2)n2cnc(C(F)(F)F)c2)nc1)OCC` [Example 58, (S)-diethyl(6-(3-cyclopentyl-2-(4-(trifluoromethyl)-1H-imidazol-1-yl)propanamido)pyridin-3-yl)methylphosphonate]: the 50% effective concentration (EC50) came to 3.4 µM. The Emax under setting [2] was 129%.
In turn, `CCOP(=O)(OCC)c1ccc(NC(=O)[C@H](CC2CCCC2)n2cnc(C(F)(F)F)c2)nc1` [Example 59, (S)-diethyl 6-(3-cyclopentyl-2-(4-(trifluoromethyl)-1H-imidazol-1-yl)propanamido)pyridin-3-ylphosphonate] gave an EC50 of 14 µM. Under setting [2], the Emax was 81%.
For the compound `O=C(Nc1ccc(CP(=O)(O)O)cn1)[C@H](CC1CCCC1)n1cnc(C(F)(F)F)c1` [Example 60, (S)-(6-(3-cyclopentyl-2-(4-(trifluoromethyl)-1H-imidazol-1-yl)propanamido)pyridin-3-yl)methylphosphonic acid], the concentration for a half-maximal effect (EC50) under setting [1] was 4.6 µM. For the same compound, the Emax under setting [2] stood at 112%.
The corresponding values for `CC(C)(C(=O)O)c1ccc(NC(=O)[C@H](CC2CCCC2)n2cnc(C(F)(F)F)c2)nc1` [Example 65, (S)-2-(6-(3-cyclopentyl-2-(4-(trifluoromethyl)-1H-imidazol-1-yl)propanamido)pyridin-3-yl)-2-methylpropanoic acid] are 17 µM and 84%.
On to `CC(C)(O)C(=O)Nc1ccc(NC(=O)[C@H](CC2CCCC2)n2cnc(C(F)(F)F)c2)nc1` [Example 67, (S)-3-Cyclopentyl-N-[5-(2-hydroxy-2-methyl-propionylamino)-pyridin-2-yl]-2-(4-trifluoromethyl-imidazol-1-yl)-propionamide], for which, under setting [1], the EC50 was determined as 2.8 µM. For the same compound, the Emax under setting [2] was found to be 104%.
As to `Cn1ccc(NC(=O)[C@H](CC2CCCC2)n2ccc(C(F)(F)F)n2)n1` [Example 68, (S)-3-cyclopentyl-N-(1-methyl-1H-pyrazol-3-yl)-2-(3-(trifluoromethyl)-1H-pyrazol-1-yl)propanamide], the EC50 under setting [1] is > 100 µM.
Turning to `Cc1ccc(NC(=O)[C@H](CC2CCCC2)n2ccc(C(F)(F)F)n2)nc1` [Example 69, (S)-3-cyclopentyl-N-(5-methylpyridin-2-yl)-2-(3-(trifluoromethyl)-1H-pyrazol-1-yl)propanamide], under setting [1], the EC50 worked out at 5.5 µM. Further, the Emax under setting [2] is 90%.
